Measurements taken from patent publication US20120108464A1, “TEST SYSTEMS, METHODS AND USES INVOLVING AS160 PROTEIN” (SANOFI-AVENTIS, priority 2009, published 2012).

How the values were obtained:
[1] = system: L6-GLUT4myc cells transiently transfected with pCDNA5/TO/GFP; test: Functionality of the T-REx system: tetracycline-inducible GFP expression plasmid; format: cell-based, rat; conditions: doxycycline 1 μg/ml versus absence of doxycycline
Procedure: FIG. 4: Functionality of the T-Rex system. […]T4myc cells were transiently transfected with […] pCDNA5/TO/GFP. In the absence of doxycycline only a minor number of cells express GFP (A). Addition of doxycycline (1μg/ml) increases the number of GFP positive cells up to about 10 fold (B). L6 cells stably expressing GLUT4myc ([…]T4myc, described in Wang et al. 1998) were subsequently used for the tet-inducible expression of AS160 protein. For this purpose the T-REx system from Invitrogen was used. The regulatory plasmid in this system controls the constitutive expression of the tet-repressor (tet-R) under the control of a CMV (cytomegalovirus) promoter. In the absence of tetracyline (or doxycycline) the repressor binds to specific tetracycline-operator sequences (TetO2) and thereby represses expression. Addition of tetracycline (or doxycycline) induces expression of the protein of interest. To allow a stable integration of the tet-system in […]T4myc cells the tet-repressor was islolated from pCDNA3.1 (+)/TR (Invitrogen) and cloned into the Nhel and Notl sites of pIRESpuro2 (FIG. 3). Subsequently pIRESpuro2/TR was transfected into […]T4myc cells. Clones stably expressing the regulatory plasmid were selected with 0.5 μg/ml puromycin (InvivoGen). Functionality of the tet-repressor was controlled with a tetracycline-inducible GFP expression plasmid (pCDNA5/TO-GFP). […]

[2] = system: L6-GLUT4myc cells containing AS160; test: Uptake of 2-deoxyglucose in response to insulin (Cytostar-T scintillating microplates); format: cell-based, rat; conditions: FIG. 6
Procedure: For all examples the L6-GLUT4myc cells containing AS160 were grown in MEMα (PAN) supplemented with 10% fetal calf serum (FCS) (PAA, tet-free), 2 μg/ml blasticidin (Calbiochem), 0.5 μg/ml puromycin (InvivoGen), 200 μg/ml hygromycin (Invitrogen). Expression of AS160 was induced with 1 μg/ml doxycyclin (Sigma). L6-wildtype (wt) (ATCC: CRL-1458) cells were grown in MEMα+GlutaMax (Gibco) supplemented with 10% FCS (PAA, tet-free) and 1% penicillin/streptomycin (PAA). L6-GLUT4myc cells were grown in MEMα+GlutaMax (Gibco) supplemented with 10% FCS (PAA, tet-free), 1% penicillin/streptomycin (PAA) and 2 μg/ml blasticidin (Calbiochem). Expression of AS160 was induced by inbubation of the cells for 48 hours with 1 μg/ml doxycycline (Sigma). All cells were grown at 37° C. and 5% CO2 L6-GLUT4myc cells containing AS160 were incubated in starve medium (MEMα) 3-4 hours prior to each experiment.
To examine glucose uptake of the cells, the respective cells were plated in 96 well Cytostar-T scintillating microplates (Amersham/GE). After 48 hours cells were serum-starved (3-4 hours) and treated with the indicated Insuman (human insulin) concentartions a for 20 minutes. […] Nonspecific uptake was determined in the presence of 40 μM cytochalasin B (Calbiochem). […] Uptake of 2-deoxyglucose is measured as counts per […] and presented as fold over basal. […]

Molecule | Increase of the number of GFP positive cells [1] | Uptake of 2-deoxyglucose, fold over basal ([2]; with expression of AS160 (isoform 1, doxycycline-induced), 100 nM insulin, 20 minutes) | Uptake of 2-deoxyglucose, fold over basal (maximum) ([2]; without expression of AS160 (isoform 1), insulin 20 minutes)
C[C@H]1c2cccc(O)c2C(=O)C2=C(O)[C@]3(O)C(=O)C(C(N)=O)=C(O)[C@@H](N(C)C)[C@@H]3[C@@H](O)[C@@H]21 [doxycycline] | about 10 fold | – | –
insulin: Insuman (human insulin) | – | about 6 fold | about 4 fold
